Reference: patent publication US5550124A, “Use of peripheral-type benzodiazpine sites for treatment of CNS trauma or disease” (priority 1991, dated 1996)
Entries after “also recorded” stand apart in the source; their conditions may differ. Like-named read-outs stand apart in the source and are kept apart here.

Columns and labels:
[1] = dogs; cited from earlier work
[2] = in vivo; cited from earlier work
[3] = administered post-ischemia in animals; cited from earlier work
[4] = rats; cited from earlier work
[5] = type: in vivo, mice (male CF-1)
[6] = biological target: T1, peripheral-type BZ receptors (Rattus norvegicus, UniProt P16257); experiment: Competitive binding assay, displacement of 3H-Ro5-4864 in brain homogenates
T1 construct: displacement of ^3 H-RO5-4864 in brain homogenates; from tissue; host or cells: brain homogenates
Source text: Sprengel, R., et al., "Molecular cloning and expression of cDNA encoding a peripheral-type benzodiazepine receptor," J. Biol. Chem., 264:20415-20421 (1989).
Some of these compounds were further tested in in vivo studies.

[7] = in vivo; cited from earlier work; remark: listed apart in the source
[8] = Physical trauma (head injury) model, grip score 18 hours post-injury; type: in vivo, mice (male CF-1)
Source text: Two tests which can be readily performed are observation of grip score and observation of grip time in injured test animals. Another test for agonist activity is for decrease in mortality caused by the CNS injury. Mice can be treated to simulate CNS injury by a variety of methods: they can be deprived of oxygen by administration of KCN (Nauquier, A., et al., Arch. Int. Pharmacodyn., 249:330 (1981)) or by temporary tying-off of the carotid artery (Braughler, J. M. and Lainer, M. J., "The effects of large doses of methylprednisolone on neurologic recovery and survival in the Mongolian gerbil following three hours of unilateral carotid occlusion," CNS Trauma, 3:153-162 (1986)). Alternatively, blows can be administered to the head or the spinal cord of the test animal.
The following protocol was used:
The compound to be tested was weighed and suspended in a polyethylated castor oil solution ("Cremophore") (21% Cremaphore, 3% ethanol in 0.9% saline). The concentration of the solution was then adjusted for administration at a dose of 0.01 cc/gm body weight. For example, for a dose of 10 mg/Kg, the solution was made 1.0 mg/cc, and a 23 g mouse would receive 0.23 cc of this solution. The solution was sonicated for approximately 90 minutes, or until the compound is dissolved.
Male CF-1 mice (15-25 gm) were weighed and marked for identification purposes. Each individual mouse was restrained by grasping the dorsal skin of the neck until the mouse was still. An impounder was used to administer the trauma. The impounder consists of a weight suspended over the animal's head at a height sufficient to produce significant injury when dropped, and a means for immobilizing the animal (in this case, room to hold the animal in place). […] 62:882-887, 883. The mouse was positioned properly under the impounder, and the weight was released from its preset height (11 CM).
Immediately following injury, the mouse was placed under a heat lamp. At various times after injury, the drug was administered intravenously at the specified dose. The time of injury and the time of injection were recorded.
B) Measurement of Grip Score
Each mouse was evaluated 18 hours post-injury for neurological deficit. The delay of 18 hours provided time for any sedative effects of the compound to wear off. It also provided time for healing to occur. Mortality was also noted. A standard grip test, as described in Hall et al., J. Neurosurg. 68:456-461 (1988), was used. The apparatus consisted of a taut string suspended between two uprights, 60 cm in length and 40 cm above a padded table.
Each mouse was picked up by the tail and placed on the string. […] The tail was then released. Grip score was recorded based on the mouse's performance while on the string. The following criteria were used (taken from Hall, E. D., J. Neurosurg. 62:882-887 (1985)):
C) Statistical Analysis Results of the above test were analyzed for statistical significance using the Mann-Whitney U test. See R. V. Tallarida & R. B. Murray, MANUAL OF PHARMACOLOGIC CALCULATIONS WITH COMPUTER PROGRAMS, Springer-Verlag, N.Y., pp. 57-59 (1981). This test was used to compare each set of grip scores for a particular dose of a particular compound against the grip scores for the control group.

[9] = tested on: NMDA receptor; conditions: cats; cited from earlier work
[10] = tested on: NMDA receptor; conditions: rats; cited from earlier work
[11] = tested on: NMDA receptor; conditions: in vivo; cited from earlier work
[12] = ischemic baboons; cited from earlier work
[13] = tested on: platelet aggregation; conditions: cited from earlier work
[14] = in vivo; cited from earlier work; remark: listed apart in the source
[15] = in vivo; cited from earlier work; remark: listed apart in the source
[16] = in vivo; cited from earlier work; remark: listed apart in the source

## Fc1ccc(C(c2ccc(F)cc2)N2CCN(C/C=C/c3ccccc3)CC2)cc1 [Flunarizine]
[1]
  effect on cerebral blood flow: no increase in cerebral blood flow or improvement in cerebral metabolism

## CN1C(=O)CN=C(c2ccccc2)c2cc(Cl)ccc21 [Diazepam, 7-Chloro-1,3-dihydro-1-methyl-5-phenyl-2H-1,4-benzodiazepin-2-one]
[2]
  effect in cerebral ischemia: somewhat effective in treatment of cerebral ischemia

## CN(C)CCCSc1ccccc1NC(=O)/C=C/c1ccccc1 [cinanserin]
[3]
  effect on neurologic function: help preserve neurologic function

## COC(=O)C1=C(C)NC(C)=C(C(=O)OC)C1c1ccccc1[N+](=O)[O-] [Nifedipine]
[4]
  effect on cerebral blood flow: antagonize cerebral blood flow

## CCC(C)N(C)C(=O)c1cc2ccccc2c(-c2ccccc2Cl)n1 (stereo not drawn) [PK 11195, N-methyl-N-1-(1-methyl,propyl)(2-chlorophenyl)-3-isoquinoline carboxamide]
[5]; after KCN, increasing dose of compound, FIG. 10
  percent survival (in words): increasing the dose of the compound increases the percent survival
[5]; varied KCN dose, FIG. 11
  protection against KCN mortality (in words): protect against higher doses of KCN
[6]
  binding affinity to peripheral-type BZ sites (in words): high degree of affinity
[7]
  effect in cardiac ischemia: ineffective in treating cardiac ischemia
[8]; 0.1 mg/kg i.v., FIG. 1
  grip score 18 hours post trauma (in words): statistically significant increase in the grip score
[8]; 1 mg/kg i.v., 5 min post injury, control 2.06 ± 0.23, P<0.05
  neurological deficit score (grip score): 3.07 ± 0.47
[8]; 1 mg/kg i.v., 30 min post injury, control 1.54 ± 0.43, P<0.004
  neurological deficit score (grip score): 3.53 ± 0.36
[8]; 1 mg/kg i.v., 60 min post injury, control 2.54 ± 0.51
  neurological deficit score (grip score): 1.93 ± 0.42
[8]; 10 mg/kg i.v., 5 min post injury, control 2.06 ± 0.23, P<0.05
  neurological deficit score (grip score): 2.89 ± 0.40
[8]; 10 mg/kg i.v., 30 min post injury, control 1.56 ± 0.50
  neurological deficit score (grip score): 2.53 ± 0.40
[8]; 10 mg/kg i.v., 60 min post injury, control 1.38 ± 0.60, P<0.03
  neurological deficit score (grip score): 2.62 ± 0.40
[8]; 10 mg/kg, administered up to 1 hour post-injury
  grip score versus controls (in words): statistically significant increase in grip score
[8]; grip score 18 h post trauma, FIGS. 1-8
  effectiveness in treatment of CNS trauma/damage (in words): effective

## CN1CCC(=C2c3ccccc3C=Cc3ccccc32)CC1 [cyproheptadine]
[3]
  effect on neurologic function: help preserve neurologic function

## C[C@]12N[C@H](Cc3ccccc31)c1ccccc12 [MK-801]
[9]
  effect on blood pressure: increases blood pressure
[10]
  effect on blood pressure: increases blood pressure
[11]
  adverse reactions: respiratory depression and elevated CO2 level; also recorded: behavioral changes, including a psychotic-like response and diminished cognitive and mental status

## COc1ccc2c(c1)c(CC(=O)O)c(C)n2C(=O)c1ccc(Cl)cc1 [indomethacin]
[12]
  edema, cerebral blood flow and carbon dioxide reactivity: significantly increase edema and decrease cerebral blood flow and carbon dioxide reactivity
[13]
  effect on platelet aggregation: inhibit platelet aggregation

## CCCCC[C@H](O)/C=C/[C@@H]1[C@H]2C/C(=C/CCCC(=O)O)O[C@H]2C[C@H]1O [PGI2, prostaglandin I2]
[14]
  half life: 3 min
[15]
  adverse effects: tendency to precipitate hypotension

## CC(=O)CCCCn1c(=O)c2c(ncn2C)n(C)c1=O [Pentoxifylline]
[15]
  adverse effects: chest pain, dyspepsia, nausea, vomiting, dizziness, headache, tremor, anxiety, blurred vision, malaise, and others
[16]
  effect on blood viscosity / red blood cell flexibility: improves the oxygenation of ischemic tissues by decreasing blood viscosity
